pIC50: −log10 of the molar value.
Columns and labels:
[1] = target: human TREX1 (Homo sapiens (Human), UniProt Q9NSU2); assay: TREX1 Exonuclease Assay (human enzyme); type: biochemical; conditions: human TREX1 0.5 nM, FAM/BHQ1-labeled DNA oligonucleotide
Outline: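 Human TREX1 (aa 55-297, 0.5 nM) or murine TREX1 (aa 1-242, 1 nM) preincubated 30 min with compound (11-point, 3-fold), then 500 nM FAM/BHQ1-quenched DNA oligo added; 45 min at room temperature in pH 7.5 Tris buffer with 5 mM MgCl2, EDTA-stopped. Fluorescence (ex 485/em 535 nm) fit to four-parameter curve for IC50.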

[2] = test system: THP1 Dual cells (ISRE Lucia reporter, cGAS-STING pathway); assay: THP1 monocyte assay, ISRE Lucia luciferase reporter; type: cell-based, human; conditions: 48 hours, luciferase signal versus control wells without compound
Description: Example C is a cell-based assay for TREX1 inhibitors using THP1 Dual™ cells (Invivogen), a human monocyte cell line that has stable integration of an Interferon Stimulated Response Element (ISRE) Lucia reporter gene. The Lucia gene encodes a secreted luciferase reporter protein, under the control of an ISG54 minimal promoter in conjunction with five IFN-stimulated response elements. Activation of the cGAS-STING pathway in THP1 Dual™ cells leads to enhanced luciferase secretion and increased luminescence.
A cell-based assay was established using THP1 Dual™ cells (Invivogen), a human monocyte cell line that has stable integration of an Interferon Stimulated Response Element (ISRE) Lucia reporter gene. The Lucia gene encodes a secreted luciferase reporter protein, under the control of an ISG54 minimal promoter in conjunction with five IFN-stimulated response elements. Activation of the cGAS-STING pathway in these cells leads to enhanced luciferase secretion. The assay was conducted in standard 384-well white tissue culture plates. Cells (25,000 in 25 μL RPMI 1640 containing 10% Heat-Inactivated FBS, 1× Glutagro, 10 mM HEPES, 1 mM sodium pyruvate, 1× Pen/Strep, 100 μg/mL Normocin, 100 μg/mL Zeocin, 10 μg/mL Blasticidin) were added to the plate followed by 25 μL of compound in the same media+0.2% DMSO. The assay was incubated for 48 hours at 37° C. in 5% CO2. An aliquot of 5 μl was removed to combine with 12.5 μL of the luciferase detection reagent, QUANTI-Luc™ Gold (Invivogen) in a white 384-well plate. The luminescent signal was then read using an EnVision plate reader (Perkin Elmer). The fold activation was calculated by dividing the signal in wells containing test compound by the signal in the control wells without compound (see Table 7).

[3] = test system: interferon stimulated genes (ISGs) in THP1 Dual cells; assay: RT-qPCR assay of interferon stimulated gene expression; type: cell-based, human; conditions: substance alone, 24 hours, normalized to GAPDH, unstimulated control = 1
Description: Example D is a cell based assay that measures the increase in the expression of interferon stimulated genes (ISG) by RT-qPCR that are induced by TREX1 inhibitors when THP1 Dual™ cells are transfected with double-stranded DNA. The double stranded DNA used to transfect cells was VACV-70 (Invivogen), a 70 base pair oligonucleotide containing viral DNA motifs (Unterholzner L. et al., 2010. IFI16 is an innate immune sensor for intracellular DNA. Nat Immunol. 11(11):997-1004). Activation of cGAS-STING pathway in THP1 Dual™ cells increases the expression of ISGs.
The RT-qPCR assay was used to assess the ability of TREX1 inhibitors to enhance the expression of interferon stimulated genes (ISGs) in cells transfected with double-stranded DNA. The double stranded DNA used to transfect cells was VACV-70 (Invivogen), a 70 base pair oligonucleotide containing viral DNA motifs (Unterholzner L. et al., 2010. IFI16 is an innate immune sensor for intracellular DNA. Nat Immunol. 11(11):997-1004). Human THP1 Dual™ cells (Invivogen), were treated with test compound in the presence or absence of 1,200 ng/mL VACV-70, or with VACV-70 alone, for 24 hours. Cells were harvested by centrifugation and washed with phosphate buffer saline. Total RNA was isolated using Qiagen RNeasy mini kit. Genomic DNA was degraded using Thermo Scientific DNase 1 kit. Total RNA was quantified using a Nanodrop spectrophotometer. Using equal amounts of RNA, cDNA was synthesized using Invitrogen Superstrand III First Strand synthesis kit. Target and reference gene expression levels were determined by RT-qPCR using TaqMan gene expression assays and a Stratagene Mx3005P QPCR system (all reagents were from TaqMan, Applied Biosystems). Data were analyzed by the Comparative CT method. GAPDH was used for normalization. Target genes that were analyzed included interferon stimulated genes (INF-β, CXCL10, IFIT1, IFIT2, IFIT3, IFI44, and IFI44L).

human TREX1, sequence (Q9NSU2 1-242): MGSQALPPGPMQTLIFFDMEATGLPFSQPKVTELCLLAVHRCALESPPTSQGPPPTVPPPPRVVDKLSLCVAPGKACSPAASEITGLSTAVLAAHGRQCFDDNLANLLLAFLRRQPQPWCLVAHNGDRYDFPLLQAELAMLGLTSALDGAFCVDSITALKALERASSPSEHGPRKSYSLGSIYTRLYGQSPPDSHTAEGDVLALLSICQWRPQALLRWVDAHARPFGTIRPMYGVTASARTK

For `N[C@@H]1C[C@H]2C(=O)N([C@H](CCC(=O)O)C(=O)NCc3ccc(Cl)c(Cl)c3)CCC(CCc3ccccc3)N2C1` (stereo partly drawn) [Example 14B], the pIC50 [1] was over 6.00, the “Fold activation @ 10 μM” value [2] was 12 and the CXCL10 expression [3] was 2. It also gave an IFI44L expression [3] of 65, an IFI44 expression [3] of 54 and an IFIT1 expression [3] of 19. For the same molecule, the IFIT2 expression [3] was 44, the IFIT3 expression [3] was 25 and the IFN-β expression [3] was 7.
